In paper PMC9555642 (PLoS ONE, 2022):

How the values were obtained:
HDAC9 = target: T1, HDAC9 (Homo sapiens, UniProt Q9UKV0); test: HDAC enzymatic activity (Eurofins); type: biochemical; settings: Class IIA; ACY-1083 mean of two separate measurements, Ricolinostat and Tubastatin A one measurement
T1 construct: purchased Eurofins Pharma Discovery Services 2611

[1] = Plasma protein binding, human blood plasma; type: in vitro ADME
Procedure: Plasma protein binding analysis was performed as reported previously using human blood plasma samples [52].

[2] = Spike test in ALI cell media (stability and binding to plastic and media components); type: in vitro ADME
Procedure: Compound concentration was then analysed after 18hrs incubation at 37 °C by LC-MSMS (Method DMPK&BAC 001–04).

COPD HBEC ALI cultures [3] = test: Cigarette smoke extract (CSE) challenge in ALI, FITC-dextran permeability; type: cell-based, human; settings: 10 μM pre-treatment 3 days, CSE 1, 3 and 6% for 48 hours, two COPD donors
Procedure: The paracellular permeability was determined by using fluorescein isothiocyanate labeled 4kD-dextran (Sigma-Aldrich, St. Louis, USA). 18 hours after addition of 0.2 mg FITC-dextran in 200 μL medium to the apical side of the ALI cultures, the fluorescence in the basolateral medium was measured using PHERAstar FSX (excitation 485 nm and emission 520 nm) (BMG LABTECH, Ortenberg, Germany). The time point was chosen for optimal window in the assays as well as practical reasons and has been kept consistent in between different stimulations throughout this work. Data was plotted as fold-change of 0.1% DMSO control.
Cigarette smoke extract (CSE) experiments were performed using CSE containing media. In short, smoke from five filterless Kentucky research cigarettes, 3R4F (Kentucky Tobacco Research and Development Center, Lexington, USA), was bubbled through 25 ml of PBS at a speed of five minutes per cigarette. The CSE was filtered through a 0.2 μm sterile filter and stored at -80°C until addition to the basolateral side of HBEC ALI cultures from two COPD donors. […] Permeability was measured after 48 hours.

COPD HBEC ALI cultures [4] = test: RNA analysis (qPCR), TNF challenge; type: cell-based, human
Procedure: TEER and permeability were measured after seven days.
To study transcriptional changes, RNA purification was carried out using the RNeasy Plus 96 kit (74192) (Qiagen, Venlo, The Netherlands) according to manufacturer’s protocol. The liquid was collected and frozen at –80°C until further analysis. RNA was quantified and cDNA synthesis was performed according to standard procedures using High-capacity cDNA Reverse Transcription Kit (4368813) (ThermoFisher, Waltham, MA, US). Real-time polymerase chain reaction (qPCR) was done using validated TaqMan® Gene Expression Assays (ThermoFisher, Waltham, MA, US), IL8 (Hs00174103_m1), CCL2 (Hs00234140_m1), CXCL10 (Hs00171042_m1), MMP9 (Hs00957562_m1), IL1B (Hs01555410_m1), MUC5AC (Hs01365616_m1), MUC5B (Hs00861595_m1) with TaqMan Fast Advanced Master Mix (4444557) (Applied Biosystems, Foster City, CA, US). Samples were run in triplicates and analyzed on the QuantStudio^TM 7 Flex Real-Time PCR 384-well System (ThermoFisher Waltham, MA, US). Data was normalized to the housekeeping genes GAPDH (Hs99999905_m1), and RPLP0 (Hs99999902_m1) and delta-delta CT values were plotted (fold change to DMSO).

COPD HBEC ALI cultures [5] = test: Mucociliary clearance (bead tracking), TNF challenge; type: cell-based, human; settings: TNF 20 ng/ml, day ten, 3 COPD donors, p = 0.0026
Procedure: In the TNF (20 ng/ml) challenged cultures, the apical surfaces were washed with pre-warmed PBS the day before addition of 50 μL of CountBright Absolute Counting beads (Invitrogen, Carlsbad, CA, USA) diluted 1:10 000 in PBS with Mg^2+ and Ca^2+. Inserts were transferred to a 12-well glass bottom plate (Cellvis, Mountain View, USA) and monitored in a Zeiss LSM 880 (Carl Zeiss AG, Oberkochen, Germany) at 37°C. Three regions in each well of each condition in three COPD donors were filmed and analyzed. Beads were tracked in the ImageJ software with the Fiji plugin Tracking and the mean velocity of each bead was plotted.

[6] = tested on: healthy HBEC at ALI cultures; test: Ciliary beat frequency; type: cell-based, human; settings: TNF-challenged healthy HBEC
Procedure: (§1) For cilia beating frequency (CBF) and cell velocity measurements, donor cells of primary healthy HBECs were amplified on rat tail collagen I coated flasks and seeded on 12-mm-diameter Transwell inserts.
CBF was quantified for the differentiated healthy HBECs treated with vehicle, TNF, and TNF + ACY-1083. The plates containing the pseudostratified epithelia were incubated at 37 °C with 5% CO2 in the 3i Marianis/Yokogawa Spinning-Disk Confocal microscope (Leica Microsystems, Sugar land, USA) as reported in our previous publications. High-speed time-lapse videos were taken at 32X air at 100 Hz with a total of 250 frames using a scientific Hamamatsu C11440-42U30 CMOS camera (Bridgewater, USA). Five areas were imaged per insert. A Matlab (R2020a) script (validated against SAVA) (previously described in [58] was used to determine average CBF per video, to generate a heat map indicating CBF.

[7] = tested on: healthy HBEC at ALI cultures; test: Cell velocity (Particle Image Velocimetry); type: cell-based, human; settings: TNF-challenged healthy HBEC, brought down to unchallenged levels, 0.0411
From the text: as §1
Cell migration was quantified by performing Particle Image Velocimetry (PIVlab) on Matlab using multi-pass cross-correlation analysis with decreasing interrogation window size on image pairs to obtain the spatial velocity field as described previously.

[8] = 10 μM spiked into cell media, 18 hrs
[9] = high concentrations of TNF, 8 days
[10] = unchallenged cells and 5 ng/ml TNF

T1 sequence (Q9UKV0 whole entry): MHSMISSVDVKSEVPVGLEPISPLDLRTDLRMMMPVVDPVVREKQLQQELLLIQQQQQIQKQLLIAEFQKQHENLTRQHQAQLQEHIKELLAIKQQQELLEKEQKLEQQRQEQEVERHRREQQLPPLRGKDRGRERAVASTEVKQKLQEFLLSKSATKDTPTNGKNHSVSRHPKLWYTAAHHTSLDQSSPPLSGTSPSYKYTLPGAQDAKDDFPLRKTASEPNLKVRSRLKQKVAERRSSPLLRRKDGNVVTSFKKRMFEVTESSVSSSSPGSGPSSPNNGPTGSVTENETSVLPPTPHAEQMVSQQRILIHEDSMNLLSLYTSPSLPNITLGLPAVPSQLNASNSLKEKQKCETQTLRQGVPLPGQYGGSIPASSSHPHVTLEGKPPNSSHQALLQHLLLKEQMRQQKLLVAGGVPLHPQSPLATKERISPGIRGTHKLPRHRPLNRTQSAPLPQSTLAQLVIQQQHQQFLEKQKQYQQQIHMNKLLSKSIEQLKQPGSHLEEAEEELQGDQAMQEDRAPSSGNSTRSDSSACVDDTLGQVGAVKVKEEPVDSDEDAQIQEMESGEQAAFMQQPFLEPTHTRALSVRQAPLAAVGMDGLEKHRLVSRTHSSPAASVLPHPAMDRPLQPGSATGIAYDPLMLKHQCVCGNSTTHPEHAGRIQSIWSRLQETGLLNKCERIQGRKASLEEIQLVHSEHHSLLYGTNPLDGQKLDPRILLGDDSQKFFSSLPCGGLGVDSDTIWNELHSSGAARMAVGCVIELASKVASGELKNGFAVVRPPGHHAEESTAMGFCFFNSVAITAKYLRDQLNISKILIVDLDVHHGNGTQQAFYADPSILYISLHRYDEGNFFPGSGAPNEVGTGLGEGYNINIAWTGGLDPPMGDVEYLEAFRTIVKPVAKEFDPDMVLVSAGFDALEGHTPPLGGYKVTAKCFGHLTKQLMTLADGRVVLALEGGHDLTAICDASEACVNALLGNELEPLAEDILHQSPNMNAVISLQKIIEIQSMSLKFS

With ACY-1083 the IC50 (HDAC9) was 19.3 µM, the free fraction [1] was 23% and the “stability in human plasma” value [1] was “stable”. The “drug concentration after 18 hrs” value ([2]; 10 μM spiked into ALI cell media in a test tube, 37 °C, LC-MSMS) was about 4 µM, the “compound lost in the system” value [2, 8] was 60% and the “remaining after spike test” value [2, 8] was “approximately 40%”. The “paracellular permeability after CSE challenge” value (COPD HBEC ALI cultures [3]) was “reduction in permeability at all concentrations”, the CXCL10 transcripts (COPD HBEC ALI cultures [4]; [9]) was “significantly reduced” and the IL1B transcripts (COPD HBEC ALI cultures [4]; [9]) was “significantly reduced”. The IL6 transcripts (COPD HBEC ALI cultures [4]; [9]) was “significantly reduced”, the MMP9 transcripts (COPD HBEC ALI cultures [4]; [9]) was “significantly reduced” and the “MUC5AC mRNA” value (COPD HBEC ALI cultures [4]; higher concentrations of TNF) was “no significant effect”. For the same substance, the “MUC5B mRNA” value (COPD HBEC ALI cultures [4]; higher concentrations of TNF) was “no significant effect”, the “MUC5AC mRNA” value (COPD HBEC ALI cultures [4]; [10]) was “reduced baseline production” and the “MUC5B mRNA” value (COPD HBEC ALI cultures [4]; [10]) was “reduced baseline production”. For the same substance, the “bead velocity (mucociliary clearance)” value (COPD HBEC ALI cultures [5]) was “significantly protected from reduction in speed”, the CBF [6] was “no effect” and the cellular velocity [7] was “counteract this increase”.
